Reference: PMC6355809, “Proteinaceous Nano container Encapsulate Polycyclic Aromatic Hydrocarbons” (Scientific Reports, 2019)

Experiments:
RHCC-NT [1] = molecular target: T1, RHCC-NT (Staphylothermus marinus, UniProt Q54436); experiment: Fluorescence binding assay (steady-state titration of PAH with RHCC-NT); conditions: for binding to RHCC-NT / concentration dependent fluorescence changes: result in words; for ∆G, molar Gibbs free energy for the ligand binding: ∆G = RT ln (Kd); for Fluorescence intensity at 350 nm (λexc = 275 nm): 4 µM naphthalene
Description: Fluorescence assays were used to examine the binding of RHCC-NT to PAHs as they allow discrimination between PAHs in solution and those bound to the RHCC-NT, as well as the ability to monitor PAH uptake as a function of time (Fig. 2). […] In order to minimize contributions from tyrosine fluorescence, the fluorescence emission at 350 nm was used to determine the binding affinity of naphthalene to RHCC-NT (Table 1).
Initial binding screens were performed by titrating known amounts of a single PAH with varying amounts of RHCC-NT. All assays were performed in 20 mM sodium phosphate solution containing 1% ethanol buffered at pH 7 and adjusted to 150 mM ionic strength. All samples were prepared in triplicate to a final volume of 1 mL and were left to incubate overnight at 25 °C to ensure complete equilibration. PAH fluorescence was then measured as a function of RHCC-NT concentration. Steady-state fluorescence spectra were collected using Fluorolog-3 Horiba Jobin Yvon spectrofluorometer (Edison, NJ). Excitation wavelength was set to 275 nm for naphthalene, 300 nm for acenaphthene, 350 nm for anthracene, 334 nm for chrysene and pyrene, 290 nm for acenaphthylene and fluorene. Excitation and emission slits were set to 1 nm band pass resolution. All samples were measured at 20 °C in a 10 × 3 mm^2 quartz cuvette. The obtained fluorescence data was used to calculate the binding constant Kd assuming that each PAH binds to one of two equal bindings sites in the RHCC-NT, cavity 2 or 3. The fraction of PAH bound and the concentration of unbound RHCC-NT was determined based on the following equation:1 Fractionbound=y=F−F0/F∞−F0=Bmax[RHCCfree]/Kd+[RHCCfree] where F is the experimental fluorescence signal of each sample, F∞ is the fluorescence of the PAH at infinite protein concentration, F0 is the fluorescence of the free PAH in solution, Bmax is a constant and equal to 1. The y values thus obtained were plotted as a function of free RHCC concentrations. The plotted data were then fit to Equation (1) using Sigma Plot 13 (Point Richmond, CA), yielding the binding constant Kd for each PAH bound to RHCC-NT[27].

RHCC-tetrabrachion = experiment: GC-MS/MS uptake of PAHs; type: binding, Staphylothermus marinus; conditions: result in words
RHCC-NT [2] = molecular target: T1, RHCC-NT; experiment: Time-scale binding assay (uptake of PAH by RHCC-NT, fluorescence); conditions: for time to reach equilibrium: under the conditions of the pyrene time-scale study (10 °C), data not shown; for Py-value (ratio of fluorescence emission intensities of Band I/III): 2 µM pyrene, 70 µM RHCC
Text: To probe the uptake kinetics of low MW PAHs, we examined the fluorescence characteristics of pyrene in solvent in comparison to RHCC-NT bound pyrene (Fig. 4). As the bulkiest of the PAHs tested, it is expected that pyrene provides an upper bound on the equilibration time of these low MW PAHs. We took advantage of the major vibronic bands (I and III) of pyrene with defined peaks at ~373 and 384 nm[11],[12]. […] The ratio of the fluorescence emission intensities of Band I/III is defined as Py-value[13],[14] and can be employed to detect polarity in the vicinity of the probed microenvironment.
The time-scale assay was set-up by addition of pyrene to a 35-fold molar excess of RHCC in 20 mM sodium phosphate solution buffered at pH 7 and adjusted to 150 mM ionic strength. Both solutions were equilibrated to 10 °C prior to the assay. Data was collected on a Fluorolog-3 Horiba Jobin Yvon Spectrofluorometer (Edison, NJ). Excitation wavelength was set to 334 nm; emission was monitored at 384 nm; excitation and emission slits were set to 1 nm band pass resolution. Temperature was kept at 10 °C and controlled with a water bath throughout the experiment. Data was acquired every 1 minute for the first 25 minutes, following by 30 minute intervals until fluorescence signal plateaued and equilibrium achieved.

[3] = design: method as in PMID 26626387; conditions: in kJ/mol; cited from earlier work

SMILES | binding to RHCC-NT / concentration dependent fluorescence changes (RHCC-NT [1]) | uptake by RHCC-tetrabrachion (RHCC-tetrabrachion) | time to reach equilibrium (RHCC-NT [2]) | Kd (RHCC-NT [1]) | ∆G, molar Gibbs free energy for the ligand binding (RHCC-NT [1]) | ΔGsolv, measured solvation free energy [3] | further results
c1ccc2cc3c(ccc4ccccc43)cc2c1 [benz(a)anthracene] | did not exhibit any concentration dependent fluorescence changes | uptake |  |  |  |  | 
C1=Cc2cccc3cccc1c23 [Acenaphthylene, acenaphthylene] |  |  | ca. 1 min | 32 ± 7 µM | -6.09 kcal/mol |  | 
c1ccc2cc3ccccc3cc2c1 [Anthracene, anthracene] |  |  |  | 8.7 ± 1.5 µM | -6.86 kcal/mol |  | 
c1cc2ccc3cccc4ccc(c1)c2c34 [Pyrene, pyrene] |  |  |  | 30 ± 2 µM | -6.12 kcal/mol | −18.91 ± 2.5 | average uptake rate (RHCC-NT [2]; 10 °C): 1.59 nmol/hr∙mol RHCC-NT; time for complete uptake by RHCC-NT (RHCC-NT [2]; 10 °C, emission at 384 nm): around 80 hrs; Py-value (ratio of fluorescence emission intensities of Band I/III) (RHCC-NT [2]; RHCC-NT:Pyrene time = 0, 10 °C): 1.7288; Py-value (ratio of fluorescence emission intensities of Band I/III) (RHCC-NT [2]; RHCC-NT:Pyrene time = 75 hrs, 10 °C): 0.6395
c1ccc2c(c1)Cc1ccccc1-2 [Fluorene, fluorene] |  |  |  | 5.4 ± 1.6 µM | -7.15 kcal/mol |  | 
c1ccc2c(c1)ccc1ccccc12 [phenanthrene] | did not exhibit any concentration dependent fluorescence changes | uptake |  |  |  | −16.2 ± 2.5 | 
c1ccc2c(c1)-c1cccc3cccc-2c13 [fluoranthene] | did not exhibit any concentration dependent fluorescence changes | uptake |  |  |  |  | 
c1cc2c3c(cccc3c1)CC2 [Acenaphthene, acenaphthene] |  |  | ca. 1 min | 8.9 ± 1.8 µM | -6.84 kcal/mol |  | 
c1ccc2ccccc2c1 [Naphthalene, naphthalene] |  |  | ca. 1 min | 17 ± 1.4 µM | -6.48 kcal/mol | −10.0 ± 2.5 | Fluorescence intensity at 350 nm (λexc = 275 nm) (RHCC-NT [1]; [RHCC] 0 µM): 708292; Fluorescence intensity at 350 nm (λexc = 275 nm) (RHCC-NT [1]; [RHCC] 0.12 µM): 709824; Fluorescence intensity at 350 nm (λexc = 275 nm) (RHCC-NT [1]; [RHCC] 0.24 µM): 730572; Fluorescence intensity at 350 nm (λexc = 275 nm) (RHCC-NT [1]; [RHCC] 0.48 µM): 733694; Fluorescence intensity at 350 nm (λexc = 275 nm) (RHCC-NT [1]; [RHCC] 0.96 µM): 780644; Fluorescence intensity at 350 nm (λexc = 275 nm) (RHCC-NT [1]; [RHCC] 1.9 µM): 906120; Fluorescence intensity at 350 nm (λexc = 275 nm) (RHCC-NT [1]; [RHCC] 3.8 µM): 1003650; Fluorescence intensity at 350 nm (λexc = 275 nm) (RHCC-NT [1]; [RHCC] 7.7 µM): 1177910; Fluorescence intensity at 350 nm (λexc = 275 nm) (RHCC-NT [1]; [RHCC] 15.4 µM): 1420260; Fluorescence intensity at 350 nm (λexc = 275 nm) (RHCC-NT [1]; [RHCC] 30.75 µM): 1845910; Fluorescence intensity at 350 nm (λexc = 275 nm) (RHCC-NT [1]; [RHCC] 61.5 µM): 1873130
c1ccc2c(c1)ccc1c3ccccc3ccc21 [Chrysene, chrysene] |  |  |  | 27 ± 5.6 µM | -6.19 kcal/mol |  | 
